A short description of data set [1]: Intranasal administration of tropisetron in cynomolgus monkeys: plasma tropisetron by HPLC, against intravenous injection. In kind it is in vivo.
Experimental: A single dose of an intranasal delivery composition was nasally administered to cynomolgus monkeys (body weight: 4.3 to 7.2 kg). Each composition was encapsulated and administered nasally using a device for nasal administration (Bioactis Co. Ltd.).
27.5 mg of tropisetron hydrochloride (equivalent to 25 mg of tropisetron free base) (Sigma), which is an antiemetic agent, and 72.5 mg of crystalline cellulose (Asahi Kasei: Avicel™ PH-F20) were mixed thoroughly in a mortar. The obtained tropisetron composition was prepared and 4.4 mg tropisetron hydrochloride (equivalent to 4.0 mg of tropisetron free base) per head was administered nasally to male cynomolgus monkeys weighing from 6.3 to 7.2 kg (n=3).
The injection was given intravenously to male cynomolgus monkeys weighing 6.9 and 7.2 kg (n=2), at 0.22 mg tropisetron hydrochloride (equivalent to 0.20 mg of tropisetron free base) per kg weight.
The plasma concentration of tropisetron free base after administration was determined by the HPLC method.
The time course of plasma tropisetron concentration after intravenous injection was subjected to a 2-compartment model analysis using the linear least-square method. The area under the theoretical plasma concentration vs. time curve (AUC) was determined based on the theoretical plasma tropisetron concentration calculated.
Data set [2] can be described thus: Intranasal administration of oxycodone in cynomolgus monkeys: plasma oxycodone by HPLC, against subcutaneous injection.

Regarding `CN1[C@@H]2CC[C@H]1C[C@@H](OC(=O)c1c[nH]c3ccccc13)C2` [tropisetron], in data set [1] (intranasal, time course of average plasma concentrations), the “Time at which the maximum plasma concentration of tropisetron was achieved” value amounted to 5 min. In data set [1] (male, cynomolgus monkey, plasma, other: intranasal, nasal, 4 mg/body (0.59 mg/kg), compared with intravenous injection, read-out: BA (bioavailability) of tropisetron), the bioavailability was determined as 73.4%.
As for `COc1ccc2c3c1O[C@H]1C(=O)CC[C@@]4(O)[C@@H](C2)N(C)CC[C@]314` [oxycodone], the “Time at which the maximum plasma concentration of oxycodone was reached” value in data set [2] (intranasal, time course of plasma concentrations) worked out at 20 min. Moreover, the bioavailability in data set [2] (male, cynomolgus, cynomolgus monkey, plasma, other: intranasal, […]) stood at 71.7%.

For orientation: bioavailability means dose-corrected exposure relative to a reference, in per cent.
